Measurements as given in patent US6737383B1, “Herbicidal oxadiazolidines” (priority 1999, dated 2004).

Legend:
bedstraw = experiment: Test B pre/postemergence bedstraw; format: in vivo, Galium aparine; conditions: Postemergence, Rate 125 g/ha; scale of 0 to 10 where 0 is no effect and 10 is complete control
In short: (§1)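 Response is a visual 0-to-10 score relative to untreated plants, where 0 means no effect and 10 means complete control, taken twelve to sixteen days after application. Treatments went onto soil at planting and onto foliage of 1- to 4-leaf plants, using a surfactant-containing non-phytotoxic solvent.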

blackgrass = experiment: Test B pre/postemergence blackgrass; format: in vivo, Alopecurus myosuroides
In short: as §1

surinam grass = experiment: Test B pre/postemergence surinam grass; format: in vivo, Brachiaria decumbens
In short: as §1

cocklebur = experiment: Test B pre/postemergence cocklebur; format: in vivo, Xanthium strumarium
In short: as §1

corn = experiment: Test B pre/postemergence corn; format: in vivo, Zea mays
In short: as §1

crabgrass = experiment: Test B pre/postemergence crabgrass; format: in vivo, Digitaria sanguinalis
In short: as §1

giant foxtail = experiment: Test B pre/postemergence giant foxtail; format: in vivo, Setaria faberii
In short: as §1

morningglory = experiment: Test B pre/postemergence morningglory; format: in vivo, Ipomoea hederacea
In short: as §1

pigweed = experiment: Test B pre/postemergence pigweed; format: in vivo, Amaranthus retroflexus
In short: as §1

rape = experiment: Test B pre/postemergence rape; format: in vivo, Brassica napus
In short: as §1

soybean = experiment: Test B pre/postemergence soybean; format: in vivo, Glycine max
In short: as §1

sugar beet = experiment: Test B pre/postemergence sugar beet; format: in vivo, Beta vulgaris
In short: as §1

velvetleaf = experiment: Test B pre/postemergence velvetleaf; format: in vivo, Abutilon theophrasti
In short: as §1

wheat = experiment: Test B pre/postemergence wheat; format: in vivo, Triticum aestivum
In short: as §1

wild oat = experiment: Test B pre/postemergence wild oat; format: in vivo, Avena fatua
In short: as §1

purple nutsedge = experiment: Test B pre/postemergence purple nutsedge; format: in vivo, Cyperus rotundus
In short: as §1

rice = experiment: Test B flood test rice; format: in vivo, Oryza sativa
In short: (§2)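 Flood test on plants grown to the 2-leaf stage; treated plants kept in greenhouse twelve to sixteen days, then visually rated against controls on a 0 (no effect) to 10 (complete control) scale.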

smallflower flatsedge = experiment: Test B flood test smallflower flatsedge; format: in vivo, Cyperus difformis
In short: as §2

duck salad = experiment: Test B flood test duck salad; format: in vivo, Heteranthera limosa
In short: as §2

bamyardgrass = experiment: Test B flood test barnyardgrass; format: in vivo, Echinochloa crus-galli
In short: as §2

[1] = Postemergence, Rate 62 g/ha, scale 0 to 10, 0 is no effect, 10 is complete control
[2] = Postemergence, Rate 125 g/ha, scale of 0 to 10 where 0 is no effect and 10 is complete control
[3] = Postemergence, Rate 250 g/ha, scale of 0 to 10, 0 is no effect, 10 is complete control
[4] = Preemergence, Rate 62 g/ha, scale of 0 to 10 where 0 is no effect and 10 is complete control
[5] = Preemergence, Rate 125 g/ha, scale of 0 to 10 where 0 is no effect and 10 is complete control
[6] = Preemergence, Rate 250 g/ha, scale 0 to 10 (0 no effect, 10 complete control)
[7] = Preemergence, Rate 500 g/ha, scale of 0 to 10 where 0 is no effect and 10 is complete control
[8] = Rate 500 g/ha, Postemergence, scale 0 to 10, 0 is no effect, 10 is complete control
[9] = Rate 62 g/ha, flood test species, Pre-emergence, visual evaluation after twelve to sixteen days
[10] = Rate 125 g/ha, under heading Pre-emergence, flood test species, visual evaluation after twelve to sixteen days
[11] = Rate 250 g/ha, Pre-emergence (flood test species), scale 0 to 10, 0 is no effect, 10 is complete control
[12] = Rate 500 g/ha, Pre-emergence section of Table B, 0 to 10 scale (0 no effect, 10 complete control)

CC[C@H](C)n1c(=O)on(C(=O)N(c2ccc(F)cc2F)C(C)C)c1=O [Compound 666]
Bedstraw plant response rating (bedstraw): 0
Plant response rating, Blackgrass (blackgrass; [1]): 6
Blackgrass plant response rating (blackgrass; [2]): 8
Blackgrass plant response rating (blackgrass; [3]): 8
Blackgrass plant response rating (blackgrass; [4]): 6
Blackgrass plant response rating (blackgrass; [5]): 8
Plant response rating, Blackgrass (blackgrass; [6]): 9
Plant response rating, Blackgrass (blackgrass; [7]): 10
Blackgrass plant response rating (blackgrass; [8]): 8
Plant response rating, B. signalgrass (surinam grass; [1]): 0
Plant response rating, B. signalgrass (surinam grass; [2]): 4
B. signalgrass plant response rating (surinam grass; [3]): 5
B. signalgrass plant response rating (surinam grass; [4]): 2
B. signalgrass plant response rating (surinam grass; [5]): 3
Plant response rating, B. signalgrass (surinam grass; [6]): 7
Plant response rating, B. signalgrass (surinam grass; [7]): 8
B. signalgrass plant response rating (surinam grass; [8]): 7
Plant response rating, Cocklebur (cocklebur; [1]): 0
Cocklebur plant response rating (cocklebur; [2]): 1
Cocklebur plant response rating (cocklebur; [3]): 4
Cocklebur plant response rating (cocklebur; [4]): 0
Cocklebur plant response rating (cocklebur; [5]): 0
Plant response rating, Cocklebur (cocklebur; [6]): 0
Plant response rating, Cocklebur (cocklebur; [7]): 0
Cocklebur plant response rating (cocklebur; [8]): 7
Plant response rating, Corn (corn; [1]): 0
Corn plant response rating (corn; [2]): 0
Corn plant response rating (corn; [3]): 0
Corn plant response rating (corn; [4]): 0
Corn plant response rating (corn; [5]): 4
Plant response rating, Corn (corn; [6]): 8
Plant response rating, Corn (corn; [7]): 10
Corn plant response rating (corn; [8]): 0
Plant response rating, Crabgrass (crabgrass; [1]): 3
Crabgrass plant response rating (crabgrass; [2]): 9
Crabgrass plant response rating (crabgrass; [3]): 9
Crabgrass plant response rating (crabgrass; [4]): 7
Crabgrass plant response rating (crabgrass; [5]): 8
Plant response rating, Crabgrass (crabgrass; [6]): 9
Plant response rating, Crabgrass (crabgrass; [7]): 10
Crabgrass plant response rating (crabgrass; [8]): 9
Plant response rating, Giant foxtail (giant foxtail; [1]): 2
Giant foxtail plant response rating (giant foxtail; [2]): 8
Giant foxtail plant response rating (giant foxtail; [3]): 8
Giant foxtail plant response rating (giant foxtail; [4]): 9
Giant foxtail plant response rating (giant foxtail; [5]): 10
Plant response rating, Giant foxtail (giant foxtail; [6]): 10
Plant response rating, Giant foxtail (giant foxtail; [7]): 10
Giant foxtail plant response rating (giant foxtail; [8]): 9
Plant response rating, Morningglory (morningglory; [1]): 0
Morningglory plant response rating (morningglory; [2]): 1
Morningglory plant response rating (morningglory; [3]): 7
Morningglory plant response rating (morningglory; [4]): 0
Morningglory plant response rating (morningglory; [5]): 0
Plant response rating, Morningglory (morningglory; [6]): 0
Plant response rating, Morningglory (morningglory; [7]): 3
Morningglory plant response rating (morningglory; [8]): 7
Plant response rating, Redroot pigweed (pigweed; [1]): 0
Redroot pigweed plant response rating (pigweed; [2]): 1
Redroot pigweed plant response rating (pigweed; [4]): 8
Redroot pigweed plant response rating (pigweed; [5]): 10
Plant response rating, Redroot pigweed (pigweed; [6]): 10
Plant response rating, Redroot pigweed (pigweed; [7]): 10
Redroot pigweed plant response rating (pigweed; [8]): 6
Plant response rating, Rape (rape; [1]): 0
Rape plant response rating (rape; [2]): 0
Rape plant response rating (rape; [4]): 0
Rape plant response rating (rape; [5]): 8
Plant response rating, Rape (rape; [6]): 10
Plant response rating, Rape (rape; [7]): 10
Rape plant response rating (rape; [8]): 4
Plant response rating, Soybean (soybean; [1]): 4
Soybean plant response rating (soybean; [2]): 4
Soybean plant response rating (soybean; [4]): 0
Soybean plant response rating (soybean; [5]): 0
Plant response rating, Soybean (soybean; [6]): 3
Plant response rating, Soybean (soybean; [7]): 4
Plant response rating, Sugarbeets (sugar beet; [1]): 0
Sugarbeets plant response rating (sugar beet; [2]): 0
Sugarbeets plant response rating (sugar beet; [4]): 0
Sugarbeets plant response rating (sugar beet; [5]): 4
Plant response rating, Sugarbeets (sugar beet; [6]): 7
Plant response rating, Sugarbeets (sugar beet; [7]): 8
Sugarbeets plant response rating (sugar beet; [8]): 4
Plant response rating, Velvetleaf (velvetleaf; [1]): 0
Velvetleaf plant response rating (velvetleaf; [2]): 2
Velvetleaf plant response rating (velvetleaf; [4]): 5
Velvetleaf plant response rating (velvetleaf; [5]): 6
Plant response rating, Velvetleaf (velvetleaf; [6]): 7
Plant response rating, Velvetleaf (velvetleaf; [7]): 8
Velvetleaf plant response rating (velvetleaf; [8]): 6
Plant response rating, Wheat (wheat; [1]): 0
Wheat plant response rating (wheat; [2]): 0
Wheat plant response rating (wheat; [4]): 0
Wheat plant response rating (wheat; [5]): 3
Plant response rating, Wheat (wheat; [6]): 4
Plant response rating, Wheat (wheat; [7]): 7
Wheat plant response rating (wheat; [8]): 3
Plant response rating, Wild oats (wild oat; [1]): 0
Wild oats plant response rating (wild oat; [2]): 0
Wild oats plant response rating (wild oat; [4]): 5
Wild oats plant response rating (wild oat; [5]): 6
Plant response rating, Wild oats (wild oat; [6]): 9
Plant response rating, Wild oats (wild oat; [7]): 9
Wild oats plant response rating (wild oat; [8]): 3
Plant response rating, Nutsedge (purple nutsedge; [1]): 0
Nutsedge plant response rating (purple nutsedge; [2]): 0
Nutsedge plant response rating (purple nutsedge; [4]): 0
Plant response rating, Nutsedge (purple nutsedge; [6]): 0
Nutsedge plant response rating (purple nutsedge; [8]): 0
Plant response rating, Rice (0 to 10 scale, 0 is no effect, 10 is complete control) (rice; [9]): 0
Rice plant response rating (0 to 10 scale, 0 is no effect, 10 is complete control) (rice; [10]): 0
Rice plant response rating (rice; [11]): 0
Rice plant response rating (rice; [12]): 0
Plant response rating, S. Flatsedge (0 to 10 scale, 0 is no effect, 10 is complete control) (smallflower flatsedge; [9]): 0
S. Flatsedge plant response rating (0 to 10 scale, 0 is no effect, 10 is complete control) (smallflower flatsedge; [10]): 0
S. Flatsedge plant response rating (smallflower flatsedge; [11]): 0
S. Flatsedge plant response rating (smallflower flatsedge; [12]): 0
Plant response rating, Ducksalad (0 to 10 scale, 0 is no effect, 10 is complete control) (duck salad; [9]): 0
Ducksalad plant response rating (0 to 10 scale, 0 is no effect, 10 is complete control) (duck salad; [10]): 0
Ducksalad plant response rating (duck salad; [11]): 0
Ducksalad plant response rating (duck salad; [12]): 0
Plant response rating, Barnyardgrass (0 to 10 scale, 0 is no effect, 10 is complete control) (bamyardgrass; [9]): 0
Barnyardgrass plant response rating (0 to 10 scale, 0 is no effect, 10 is complete control) (bamyardgrass; [10]): 0
Barnyardgrass plant response rating (bamyardgrass; [11]): 0
Barnyardgrass plant response rating (bamyardgrass; [12]): 5
